Measured values taken from US20160271263A1 (Novo Nordisk A/S, priority 2010, published 2016).
Numbered stars: 1 amine (or outer) side, 2 acyl side, 3 side chain; on linkers, the order of the positions; unused ones are H or OH. Square brackets hold non-standard residues; d marks the D form. Side chains are listed from the residue outwards. Peptide text beside a SMILES is read from it. * marks the point of attachment. C18 diacid = O=C(O)CCCCCCCCCCCCCCCCC(=O)*; γGlu = O=C(O)[C@H](CCC(=O)[*:2])N[*:1]; AEEA = NCCOCCOCC(=O)O; Aib = CC(C)(N)C(=O)O

Biological target: glucagon receptor (Homo sapiens, UniProt P47871)
Test: cell-based

glucagon receptor, sequence (P47871 26-477): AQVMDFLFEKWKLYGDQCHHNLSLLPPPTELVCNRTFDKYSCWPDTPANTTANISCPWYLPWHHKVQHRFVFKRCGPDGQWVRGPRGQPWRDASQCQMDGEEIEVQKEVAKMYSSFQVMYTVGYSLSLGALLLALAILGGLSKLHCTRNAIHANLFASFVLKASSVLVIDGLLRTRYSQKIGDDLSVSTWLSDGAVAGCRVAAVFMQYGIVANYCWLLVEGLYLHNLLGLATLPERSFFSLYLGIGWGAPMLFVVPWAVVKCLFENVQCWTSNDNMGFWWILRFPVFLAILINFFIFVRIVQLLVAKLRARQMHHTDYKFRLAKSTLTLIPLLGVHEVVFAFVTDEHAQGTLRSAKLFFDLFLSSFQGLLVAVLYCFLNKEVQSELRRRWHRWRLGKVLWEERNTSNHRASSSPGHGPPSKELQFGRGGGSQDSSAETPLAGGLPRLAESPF

Q: For `CC(C)C[C@H](NC(=O)[C@H](Cc1ccc(O)cc1)NC(=O)[C@H](CCCCN)NC(=O)[C@H](CO)NC(=O)[C@H](Cc1ccc(O)cc1)NC(=O)[C@H](CC(=O)O)NC(=O)[C@H](CO)NC(=O)[C@@H](NC(=O)[C@H](Cc1ccccc1)NC(=O)[C@@H](NC(=O)CNC(=O)[C@H](CCC(N)=O)NC(=O)[C@H](CO)NC(=O)[C@@H](N)Cc1c[nH]cn1)[C@@H](C)O)[C@@H](C)O)C(=O)N[C@@H](CC(=O)O)C(=O)N[C@@H](CCC(=O)O)C(=O)N[C@@H](CCCCN)C(=O)N[C@@H](CCCNC(=N)N)C(=O)N[C@@H](C)C(=O)N[C@@H](CCC(N)=O)C(=O)N[C@@H](CCC(=O)O)C(=O)N[C@@H](Cc1ccccc1)C(=O)N[C@H](C(=O)N[C@@H](CCCCNC(=O)COCCOCCNC(=O)COCCOCCNC(=O)CC[C@H](NC(=O)CCCCCCCCCCCCCCCCC(=O)O)C(=O)O)C(=O)N[C@@H](Cc1c[nH]c2ccccc12)C(=O)N[C@@H](CC(C)C)C(=O)N[C@@H](CC(C)C)C(=O)N[C@@H](CC(N)=O)C(=O)N[C@H](C(N)=O)[C@@H](C)O)C(C)C` [Example 38, N^ε24-([2-[2-[2-[[2-[2-[2-[[(4S)-5-hydroxy-4-[(18-hydroxy-18-oxooctadecanoyl)amino]-5-oxopentanoyl]amino]ethoxy]ethoxy]acetyl]amino]ethoxy]ethoxy]acetyl])[Glu^16, Lys^17, Glu^21, Lys^24,Leu^27] Glucagon peptide amide] (H-HSQGTFTSDYSKYLDEKRAQEFVK([AEEA-AEEA-γGlu-C18 diacid])WLLNT-NH2; N-terminus assumed), which EC50 is on record?
A: 15 pM

Q: For `CC(C)C[C@H](NC(=O)[C@H](Cc1ccc(O)cc1)NC(=O)[C@H](CCCCN)NC(=O)[C@H](CO)NC(=O)[C@H](Cc1ccc(O)cc1)NC(=O)[C@H](CC(=O)O)NC(=O)[C@H](CO)NC(=O)[C@@H](NC(=O)[C@H](Cc1ccccc1)NC(=O)[C@@H](NC(=O)CNC(=O)[C@H](CCC(N)=O)NC(=O)C(C)(C)NC(=O)[C@@H](N)Cc1c[nH]cn1)[C@@H](C)O)[C@@H](C)O)C(=O)N[C@@H](CC(=O)O)C(=O)N[C@@H](CCCCNC(=O)COCCOCCNC(=O)COCCOCCNC(=O)CC[C@H](NC(=O)CCCCCCCCCCCCCCCCC(=O)O)C(=O)O)C(=O)N[C@@H](CCCCN)C(=O)N[C@@H](CCCNC(=N)N)C(=O)N[C@@H](C)C(=O)N[C@@H](CCC(N)=O)C(=O)N[C@@H](CCC(=O)O)C(=O)N[C@@H](Cc1ccccc1)C(=O)N[C@H](C(=O)N[C@@H](CCC(N)=O)C(=O)N[C@@H](Cc1c[nH]c2ccccc12)C(=O)N[C@@H](CC(C)C)C(=O)N[C@@H](CC(C)C)C(=O)N[C@@H](CC(N)=O)C(=O)N[C@H](C(N)=O)[C@@H](C)O)C(C)C` [Example 39, N^ε16-([2-[2-[2-[[2-[2-[2-[[(4S)-5-hydroxy-4-[(18-hydroxy-18-oxooctadecanoyl)amino]-5-oxopentanoyl]amino]ethoxy]ethoxy]acetyl]amino]ethoxy]ethoxy]acetyl]) [Aib^2, Lys^16, Lys^17, Glu^21,Leu^27] Glucagon peptide amide] (H-H[Aib]QGTFTSDYSKYLDK([AEEA-AEEA-γGlu-C18 diacid])KRAQEFVQWLLNT-NH2; N-terminus assumed), which EC50 is on record?
A: 7 pM

Q: With `CC(C)C[C@H](NC(=O)[C@H](Cc1ccc(O)cc1)NC(=O)[C@H](CCCCN)NC(=O)[C@H](CO)NC(=O)[C@H](Cc1ccc(O)cc1)NC(=O)[C@H](CC(=O)O)NC(=O)[C@H](CO)NC(=O)[C@@H](NC(=O)[C@H](Cc1ccccc1)NC(=O)[C@@H](NC(=O)CNC(=O)[C@H](CCC(N)=O)NC(=O)[C@H](CO)NC(=O)[C@@H](N)Cc1c[nH]cn1)[C@@H](C)O)[C@@H](C)O)C(=O)N[C@@H](CC(=O)O)C(=O)N[C@@H](CO)C(=O)N[C@@H](CCCCN)C(=O)N[C@@H](CCCNC(=N)N)C(=O)N[C@@H](C)C(=O)N[C@@H](CCC(N)=O)C(=O)N[C@@H](CCC(=O)O)C(=O)N[C@@H](Cc1ccccc1)C(=O)N[C@H](C(=O)N[C@@H](CCCCNC(=O)COCCOCCNC(=O)COCCOCCNC(=O)CC[C@H](NC(=O)CCCCCCCCCCCCCCCCC(=O)O)C(=O)O)C(=O)N[C@@H](Cc1c[nH]c2ccccc12)C(=O)N[C@@H](CC(C)C)C(=O)N[C@@H](CC(C)C)C(=O)N[C@@H](CO)C(=O)N[C@H](C(N)=O)[C@@H](C)O)C(C)C` [Example 40, N^ε24-([2-[2-[2-[[2-[2-[2-[[(4S)-5-hydroxy-4-[(18-hydroxy-18-oxooctadecanoyl)amino]-5-oxopentanoyl]amino]ethoxy]ethoxy]acetyl]amino]ethoxy]ethoxy]acetyl]) [Lys^17, Glu^21,Lys^24,Leu^27,Ser^28]Glucagon peptide amide] (H-HSQGTFTSDYSKYLDSKRAQEFVK([AEEA-AEEA-γGlu-C18 diacid])WLLST-NH2; N-terminus assumed) as the compound, how does the EC50 read?
A: 7 pM

Q: For `CC(C)C[C@H](NC(=O)[C@H](Cc1ccc(O)cc1)NC(=O)[C@H](CCCCN)NC(=O)[C@H](CO)NC(=O)[C@H](Cc1ccc(O)cc1)NC(=O)[C@H](CC(=O)O)NC(=O)[C@H](CO)NC(=O)[C@@H](NC(=O)[C@H](Cc1ccccc1)NC(=O)[C@@H](NC(=O)CNC(=O)[C@H](CCC(N)=O)NC(=O)[C@H](CO)NC(=O)[C@@H](N)Cc1c[nH]cn1)[C@@H](C)O)[C@@H](C)O)C(=O)N[C@@H](CC(=O)O)C(=O)N[C@@H](CO)C(=O)N[C@@H](CCCCN)C(=O)N[C@@H](CCCNC(=N)N)C(=O)N[C@@H](C)C(=O)N[C@@H](CCC(N)=O)C(=O)N[C@@H](CCC(=O)O)C(=O)N[C@@H](Cc1ccccc1)C(=O)N[C@H](C(=O)N[C@@H](CCCCNC(=O)COCCOCCNC(=O)COCCOCCNC(=O)CC[C@H](NC(=O)CCCCCCCCCCCCCCCCC(=O)O)C(=O)O)C(=O)N[C@@H](Cc1c[nH]c2ccccc12)C(=O)N[C@@H](CC(C)C)C(=O)N[C@@H](CC(C)C)C(=O)N[C@@H](CCC(=O)O)C(=O)N[C@H](C(N)=O)[C@@H](C)O)C(C)C` [Example 41, N^ε24-([2-[2-[2-[[2-[2-[2-[[(4S)-5-hydroxy-4-[(18-hydroxy-18-oxooctadecanoyl)amino]-5-oxopentanoyl]amino]ethoxy]ethoxy]acetyl]amino]ethoxy]ethoxy]acetyl])[Lys^17, Glu^21,Lys^24,Leu^27,Glu^28,]Glucagon peptide amide] (H-HSQGTFTSDYSKYLDSKRAQEFVK([AEEA-AEEA-γGlu-C18 diacid])WLLET-NH2; N-terminus assumed), which EC50 is on record?
A: 3 pM

Q: For `CC(C)C[C@H](NC(=O)[C@H](Cc1ccc(O)cc1)NC(=O)[C@H](CCCCN)NC(=O)[C@H](CO)NC(=O)[C@H](Cc1ccc(O)cc1)NC(=O)[C@H](CC(=O)O)NC(=O)[C@H](CO)NC(=O)[C@@H](NC(=O)[C@H](Cc1ccccc1)NC(=O)[C@@H](NC(=O)CNC(=O)[C@H](CCC(N)=O)NC(=O)[C@H](CO)NC(=O)[C@@H](N)Cc1c[nH]cn1)[C@@H](C)O)[C@@H](C)O)C(=O)N[C@@H](CC(=O)O)C(=O)N[C@@H](CO)C(=O)N[C@@H](CCCCN)C(=O)N[C@@H](CCCNC(=N)N)C(=O)N[C@@H](C)C(=O)N[C@@H](CCC(N)=O)C(=O)N[C@@H](CCC(=O)O)C(=O)N[C@@H](Cc1ccccc1)C(=O)N[C@H](C(=O)N[C@@H](CCC(N)=O)C(=O)N[C@@H](Cc1c[nH]c2ccccc12)C(=O)N[C@@H](CC(C)C)C(=O)N[C@@H](CC(C)C)C(=O)N[C@@H](CC(N)=O)C(=O)N[C@H](C(=O)N[C@@H](CCCCNC(=O)COCCOCCNC(=O)COCCOCCNC(=O)CC[C@H](NC(=O)CCCCCCCCCCCCCCCCC(=O)O)C(=O)O)C(N)=O)[C@@H](C)O)C(C)C` [Example 42, N^α-([Lys^17, Glu^21, Leu^27] Glucagonyl) N^ε-([2-[2-[2-[[2-[2-[2-[[(4S)-5-hydroxy-4-[(18-hydroxy-18-oxooctadecanoyl)amino]-5-oxopentanoyl]amino]ethoxy]ethoxy]acetyl]amino]ethoxy]ethoxy]acetyl]) Lysinyl amide] (H-HSQGTFTSDYSKYLDSKRAQEFVQWLLNTK([AEEA-AEEA-γGlu-C18 diacid])-NH2; N-terminus assumed), which EC50 is on record?
A: 17 pM

Q: For `CC(C)C[C@H](NC(=O)[C@H](Cc1ccc(O)cc1)NC(=O)[C@H](CCCCN)NC(=O)[C@H](CO)NC(=O)[C@H](Cc1ccc(O)cc1)NC(=O)[C@H](CC(=O)O)NC(=O)[C@H](CO)NC(=O)[C@@H](NC(=O)[C@H](Cc1ccccc1)NC(=O)[C@@H](NC(=O)CNC(=O)[C@H](CCC(N)=O)NC(=O)[C@H](CO)NC(=O)[C@@H](N)Cc1c[nH]cn1)[C@@H](C)O)[C@@H](C)O)C(=O)N[C@@H](CC(=O)O)C(=O)N[C@@H](CO)C(=O)N[C@@H](CCCCN)C(=O)N[C@@H](CCCNC(=N)N)C(=O)N[C@@H](C)C(=O)N[C@@H](CCC(N)=O)C(=O)N[C@@H](CCC(=O)O)C(=O)N[C@@H](Cc1ccccc1)C(=O)N[C@H](C(=O)N[C@@H](CCC(N)=O)C(=O)N[C@@H](CCCCNC(=O)COCCOCCNC(=O)COCCOCCNC(=O)CC[C@H](NC(=O)CCCCCCCCCCCCCCCCC(=O)O)C(=O)O)C(=O)N[C@@H](CC(C)C)C(=O)N[C@@H](CC(C)C)C(=O)N[C@@H](CC(N)=O)C(=O)N[C@H](C(N)=O)[C@@H](C)O)C(C)C` [Example 44, N^ε25 ([2-[2-[2-[[2-[2-[2-[[(4S)-5-hydroxy-4-[(18-hydroxy-18-oxooctadecanoyl)amino]-5-oxopentanoyl]amino]ethoxy]ethoxy]acetyl]amino]ethoxy]ethoxy]acetyl]) [Lys^17, Glu^21, Lys^25 Leu^27] Glucagon peptide amide] (H-HSQGTFTSDYSKYLDSKRAQEFVQK([AEEA-AEEA-γGlu-C18 diacid])LLNT-NH2; N-terminus assumed), which EC50 is on record?
A: 12 pM
